Results reported in patent publication US9925263B2, “Liquid pharmaceutical formulations for injection comprising procaine and uses thereof” (EAGLE BIOLOGICS, INC., priority 2013, dated 2018).

Tests used:
REMICADE® [1] = assay: Syringe extrusion force of concentrated […]® solutions (Instron); format: physicochemical; conditions: 1 mL BD insulin syringe, 3 mL/min, REMICADE 224-230 mg/mL, 0.25M agent
Method: (§1) Following reconstitution, the viscosity of each solution was measured using the microfluidic viscometer as described in previous examples. The solutions were then back-loaded into 1 mL BD insulin syringes with 27, 29, or 31 gauge fixed needles. The force required to extrude the concentrated […]® solutions was then measured using an Instron at a rate of displacement equivalent to a fluid flow rate of 3 mL/min. The expelled solution was collected from the syringe and analyzed by size-exclusion chromatography.

ARZERRA® = assay: Viscosity of aqueous solutions of ARZERRA® with viscosity-lowering agents; format: physicochemical; conditions: 0.25M agent, 25° C., pH 7.0
Text: (§2) (unless otherwise indicated).

REMICADE® [2] = assay: Monomer content of […]® solutions by size exclusion chromatography; format: physicochemical; conditions: 0.25M agent
Method: Biophysical properties of solutions of […]® formulated with 0.25 M CSAA were assessed over 90 days. Samples of […]® formulated with 0.25 M CSAA were prepared as described in Example 1 above.
as §1

biosimilar AVASTIN® = assay: Viscosity of aqueous solutions of biosimilar AVASTIN® with viscosity-lowering agents; format: physicochemical; conditions: ~230 mg/mL mAb; vs PB; Table 12
Method: as §2
The protein was formulated to contain either 0.25 M phosphate buffer or 0.25 M CSAL.
Subsequently, the appropriate amount of viscosity-lowering agent was added to result in a final viscosity-lowering agent concentration of 0.15-0.35 M upon reconstitution.
The viscosity-lowering agent(s) were added in an amount sufficient to give concentration upon reconstitution as specified below. In cases of combinations of agents, the concentration of each component is 0.15 M. The protein solutions were then freeze-dried.

biosimilar RITUXAN® = assay: Viscosity of aqueous solutions of biosimilar RITUXAN® with viscosity-lowering agents;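 note: absolute viscosity of aqueous antibody solutions determined by microfluidic viscometry (mVROC chip, 50 micron channel) at several flow rates after 5 min equilibration, mean of at least three readings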
Method: All viscosities of well-mixed aqueous mAb solutions were measured using either a mVROC microfluidic viscometer (RheoSense) or a DV2T cone and plate viscometer (Brookfield; “C & P”) after a 5 minute equilibration at 25° C. […] The mVROC viscometer was equipped with an “A” or “B” chip, each manufactured with a 50 micron channel. Typically, 0.10 mL of protein solution was back-loaded into a gastight microlab instrument syringe (Hamilton; 100 μL), affixed to the chip, and measured at multiple flow rates, approximately 20%, 40%, and 60% of the maximum pressure for each chip. […] An average absolute viscosity and standard deviation was then calculated from at least these three measurements. The C & P viscometer was equipped with a CPE40 or CPE52 spindle (cone angle of 0.8° and 3.0°, respectively) and 0.50 mL samples were measured at multiple shear rates between 2 and 400 s^−1. […] An extrapolated zero-shear viscosity was then determined from a plot of dynamic viscosity versus shear rate for the samples measured on a DV2T cone and plate viscometer. The extrapolated zero-shear viscosities reported are the average and standard deviation of at least three measurements.
Viscosities were measured using a RheoSense mVROC microfluidic viscometer equipped with an “A” or “B” chip.

## camphorsulfonic acid 1-(3-aminopropyl)-2-methyl-1H-imidazole [CSAAPMI]
REMICADE® [1]; 27 gauge needle
  Syringe Force: 21.9 N
REMICADE® [1]; 29 gauge needle
  Syringe Force: 30.4 N
REMICADE® [1]; 31 gauge needle
  Syringe Force: 38.4 N
ARZERRA®; 245 ± 4 mg/mL ARZERRA
  Viscosity: 53.6 ± 0.6 cP
ARZERRA®; 274 ± 10 mg/mL ARZERRA
  Viscosity: 98.9 ± 0.7 cP
REMICADE® [2]; expelled through 27 gauge needle, REMICADE 224-230 mg/mL (per agent)
  % Monomer: 99.1 ± 0.0%
REMICADE® [2]; expelled through 29 gauge needle, REMICADE 224-230 mg/mL (per agent)
  % Monomer: 99.0 ± 0.0%
REMICADE® [2]; expelled through 31 gauge needle, REMICADE 224-230 mg/mL (per agent)
  % Monomer: 99.0 ± 0.0%
REMICADE® [2]; pre-syringe, REMICADE 220-230 mg/mL (per agent)
  % Monomer: 99.2 ± 0.32%
Biosimilar AVASTIN®
  Viscosity reduction: approximately 5 fold
Biosimilar RITUXAN®; 202 ± 2 mg/mL RITUXAN, 0.25M agent, 25° C., pH 7.0
  Viscosity: 38.7 ± 0.7
Biosimilar RITUXAN®; pH 7
  Viscosity: 78.6 ± 2.0
